This is an account of results in US20250051286A1, “SMALL MOLECULE INHIBITORS OF PR3 AND HNE AND USES THEREOF” (ORIXA THERAPEUTICS LLC, priority 2021, published 2025).

No end group written: not given here.

Experiment [1] can be described thus: Treatment of Granulomatosis with Polyangiitis patient (Example 6). The settings on record: GPA patient; orally 50 mg once per day; within one week. Format: in vivo, human. The method, then: In this example, a patient complains of several symptoms including sinus pain, cough, fever, joint aches, blood in urine, and hearing loss. A physician diagnosis them with GPA after analyzing diagnostic markers.
The treating physician anticipates further complications such as acute respiratory distress syndrome (ARDS) and (multiple) organ failure. To prevent this, the treating physician administers a compound of Formula DCT-5A to the patient. The patient is administered the drug orally (i.e., 50 mg, once per day). Within one week, the signs/symptoms of AATD are resolved by about 90% and the patient appears in good health. The patient resumes the treatment and is periodically monitored for changes in their condition.

Experiment [2] can be described thus: Treatment of severe inflammation, post-surgery patient (Example 5). It is filed as in vivo, human. The settings on record: intravenously 5 mcg/minute for 1 hour, second dose after 24 hours; within two days. On the procedure: In this example, a patient is recovering from surgery following a traumatic vehicle accident. The treating physician anticipates further complications such as acute respiratory distress syndrome (ARDS) and (multiple) organ failure. To prevent this, the treating physician administers a compound of Formula DCT-5A to the patient. The patient is administered the drug intravenously (i.e., 5 mcg/minute for 1 hour). The patient is administered a second dose after 24 hours. […] The patient resumes the treatment and is periodically monitored for changes in their condition.

A short description of experiment [3]: Treatment of PR3 positive ulcerative colitis patient (Example 7). It is filed as in vivo, human. The settings on record: intravenously 5 mcg/minute for 1 hour, second dose after 24 hours; within two days. The method, then: In this example, a patient is admitted to a hospital with cough and fever (over 39.0° C.). About one month prior, they had presented with fever (over 39.0° C.), diarrhea and bloody bowel discharge. Upon admission, their hemoglobin was 8.9 g/dl and the serum C-reactive protein level was 6.8 mg/dl. […] Further, the patient tested positive for PR3-ANCA serological marker.
The treating physician administers a compound of Formula DCT-5A to the patient. The patient is administered the drug intravenously (i.e., 5 mcg/minute for 1 hour). The patient is administered a second dose after 24 hours. […] Thereafter, the patient is administered the drug orally (50 mg per day). The patient resumes the treatment and is periodically monitored for changes in their condition.

The nature of experiment [4]: Treatment of Alpha-1 Antitrypsin Deficiency patient (Example 4). The settings on record: orally 50 mg once per day; within two weeks. It is filed as in vivo, human. From the text: In this example, a patient is diagnosed with AATD after presenting symptoms related to difficulty breathing and mild jaundice. […] The patient receives conventional therapy (e.g., bronchodilators, inhaled corticosteroids, pulmonary rehabilitation and supplemental oxygen). […] This treatment leads to some improvement, but the patient returns to the clinic seeking an alternative treatment.
The treating physician administers a compound of Formula DCT-5A to the patient: […]
The patient is administered the drug orally (i.e., 50 mg, once per day). Within two weeks, the signs/symptoms of AATD are resolved by about 80% and the patient appears in good health. The patient resumes the treatment and is periodically monitored for changes in their condition.

The conditions of experiment [5]: CF patients in an exacerbated state of inflammation; cited from earlier work.
For experiment [6] the following is noted: DSS-induced mouse model of UC; cited from earlier work.

In the case of `N=C(N)NCCC(CCCc1ccc(F)cc1)C(=O)NN1CN(CCCc2ccccc2)[C@H](Cc2ccc(O)cc2)C1=O` (stereo partly shown) [DCT-5A], the “signs/symptoms of AATD resolved” value was “about 90%” in experiment [1] and “about 80%” in experiment [4]. Further, the “clinical course of the patient” value in experiment [2] and in experiment [3] was “shows signs of improvement” each time.
In the case of “A1PI: α1-proteinase inhibitor, a serpin; endogenous inhibitor of neutrophilic serine proteinases”, the “effect on IL6, IL1β and NE activity” value in experiment [5] was “decrease”.
“elafin: polypeptide inhibitor of some peptidases and elastases; inhibits HNE, PR3 and pancreatic elastase (AQEPVKGPVSTKPGSCPIILIRCAMLNPPNRCLKDTDCPGIKKCCEGSCGMACFVPQ; ends and bridges not checked; cysteine pairing not given here; UniProt P19957 61-117, looked up)”: the reducing inflammation entry in experiment [6] is reported as “successful in reducing inflammation in a dose-dependent manner”.

B1: SLPI: locally produced chelonianin; inhibits HNE but not PR3 (protein, UniProt P03973 26-132, looked up)
Antileukoproteinase: SGKSFKAGVCPPKKSAQCLRYKKPECQSDWQCPGKKRCCPDTCGIKCLDPVDTPNPTRRKPGKCPVTYGQCLMLNPPNFCEMDGQCKRDLKCCMGMCGKSCVSPVKA
Regarding B1, the reducing inflammation result in experiment [6] was “also successful”.
